Experimental data reported in the supplement of paper PMC10307832.

Key:
Assay in all cases: relative viability (nuclei count vs DMSO), 5 days (fraction); higher = more cells survive
Apatinib + Olaparib = compound: N#CC1(c2ccc(NC(=O)c3cccnc3NCc3ccncc3)cc2)CCCC1 [Apatinib] + O=C(c1cc(Cc2n[nH]c(=O)c3ccccc23)ccc1F)N1CCN(C(=O)C2CC2)CC1 [Olaparib] (partner 8 µM)
How it was run: (§1)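 Values are medians from duplicate plates. Each reflects relative viability, defined as the nuclei count of treated wells over that of vehicle wells. Lung cancer cell lines in 1536-well plates were pin-tool dosed one day after seeding with one drug alone or with a fixed anchor-drug dose plus five library-drug doses (not always all listed) in √10 steps, then fixed, stained and imaged at 4× after 5 days.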

Apatinib + Crizotinib = compound: N#CC1(c2ccc(NC(=O)c3cccnc3NCc3ccncc3)cc2)CCCC1 [Apatinib] + C[C@@H](Oc1cc(-c2cnn(C3CCNCC3)c2)cnc1N)c1c(Cl)ccc(F)c1Cl [Crizotinib] (partner 1 µM)
How it was run: as §1

Metformin + Pictilisib = compound: CN(C)C(=N)NC(=N)N [Metformin] + CS(=O)(=O)N1CCN(Cc2cc3nc(-c4cccc5[nH]ncc45)nc(N4CCOCC4)c3s2)CC1 [Pictilisib] (partner 1 µM)
How it was run: as §1

Metformin + Alpelisib = compound: CN(C)C(=N)NC(=N)N [Metformin] + Cc1nc(NC(=O)N2CCC[C@H]2C(N)=O)sc1-c1ccnc(C(C)(C)C(F)(F)F)c1 [Alpelisib] (partner 2 µM)
How it was run: as §1

Cell Line: NCI-H460
- relative viability (Apatinib + Olaparib; first compound 0.08 µM): 0.407
- relative viability (Apatinib + Olaparib; first compound 0.253 µM): 0.444
- relative viability (Apatinib + Olaparib; first compound 0.8 µM): 0.344
- relative viability (Apatinib + Olaparib; first compound 2.53 µM): 0.323
- relative viability (Apatinib + Olaparib; first compound 8 µM): 0.237
- relative viability (Apatinib + Crizotinib; first compound 0.08 µM): 1.04
- relative viability (Apatinib + Crizotinib; first compound 0.253 µM): 0.907
- relative viability (Apatinib + Crizotinib; first compound 0.8 µM): 0.727
- relative viability (Apatinib + Crizotinib; first compound 2.53 µM): 0.848
- relative viability (Apatinib + Crizotinib; first compound 8 µM): 0.857
- relative viability (Metformin + Pictilisib; first compound 31.62 µM): 0.41
- relative viability (Metformin + Pictilisib; first compound 100 µM): 0.327
- relative viability (Metformin + Pictilisib; first compound 316.23 µM): 0.337
- relative viability (Metformin + Pictilisib; first compound 1000 µM): 0.401
- relative viability (Metformin + Alpelisib; first compound 31.62 µM): 0.471
- relative viability (Metformin + Alpelisib; first compound 100 µM): 0.534
- relative viability (Metformin + Alpelisib; first compound 316.23 µM): 0.502
- relative viability (Metformin + Alpelisib; first compound 1000 µM): 0.471
